Source: patent US8431593B2, “Heteroaryl amide derivatives” (H. Lundbeck A/S, priority 2006, dated 2013)

target: T1, P2X7 receptor (Homo sapiens, UniProt Q99572); assay: P2X7 calcium mobilization assay, high throughput, antagonist activity (Example 4A); type: cell-based; settings: not given
T1 construct: host or cells: SH-SY5Y
T1 sequence (Q99572 1-595): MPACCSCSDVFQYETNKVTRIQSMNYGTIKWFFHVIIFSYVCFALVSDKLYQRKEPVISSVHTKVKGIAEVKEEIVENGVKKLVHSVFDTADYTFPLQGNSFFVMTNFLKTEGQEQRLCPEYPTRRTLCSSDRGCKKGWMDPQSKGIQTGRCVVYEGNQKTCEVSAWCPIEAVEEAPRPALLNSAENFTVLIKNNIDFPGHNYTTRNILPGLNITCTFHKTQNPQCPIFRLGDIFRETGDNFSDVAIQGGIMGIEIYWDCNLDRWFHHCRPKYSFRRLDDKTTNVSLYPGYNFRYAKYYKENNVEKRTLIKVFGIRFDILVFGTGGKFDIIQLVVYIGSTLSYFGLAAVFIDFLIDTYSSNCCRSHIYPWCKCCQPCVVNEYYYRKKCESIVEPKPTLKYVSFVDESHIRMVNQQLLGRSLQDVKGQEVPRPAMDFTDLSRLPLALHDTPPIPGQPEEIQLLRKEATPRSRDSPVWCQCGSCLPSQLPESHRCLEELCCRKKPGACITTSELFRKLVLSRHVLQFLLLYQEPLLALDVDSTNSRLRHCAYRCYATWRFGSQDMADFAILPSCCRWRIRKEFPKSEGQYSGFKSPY
Procedure, shortened: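 100,000 cells/well, plated day -1. Dye 1 h → rinse → compound 1 h, RT → FLIPR^TETRA Ca2+ mobilization. Max RFU minus mean negative control (no agonist); mean agonist-well max as positive control.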

SMILES | IC50 [nM]
O=C(NCC12CC3CC(CC(C3)C1)C2)c1cccc2nc(CCO)cn12 [Compound 6, N-(adamantan-1-ylmethyl)-2-(2-hydroxyethyl)imi-dazo[1,2-a]pyridine-5-carboxamide] | < 2000
C[C@H](O)CNC(=O)Cc1cn2c(C(=O)NCC34CC5CC(CC(C5)C3)C4)cccc2n1 [Compound 29, N-(adamantan-1-ylmethyl)-2-(2-{[(2S)-2-hydroxy-propyl]amino}-2-oxoethyl)imi-dazo[1,2-a]pyridine-5-carboxamide] | < 2000

same assay, conditions: 50% decrease in the fluorescence response of cells exposed to 80 μM 2′(3′)-O-(4-benzoyl-benzoyl)adenosine 5′-triphosphate; Example 4A; read-out: IC50

SMILES | IC50 [nM]
O=C(CC12CC3CC(CC(C3)C1)C2)Nc1cccc2nc(CSc3nnc[nH]3)cn12 [Compound 540, 2-adamantan-1-yl-N-{2-[(4H-1,2,4-triazol-3-ylthio)methyl]imidazo [1,2-a]pyridin-5-yl}acetamide] | < 2000
CC(C)C[C@H](NC(=O)c1cn2c(C(=O)NC[C@@H]3CC[C@H]4C[C@@H]3C4(C)C)cccc2n1)C(N)=O [Compound 515, 2-N-[(1S)-1-carbamoyl-3-methylbutyl]-5-N-{[(1S,2R,5S)-6,6-dimethylbicyclo [3.1.1]hept-2-yl]methyl} imidazo[1,2-a]pyridine-2,5-dicarboxamide] | < 2000

same assay, conditions: 50% decrease in the fluorescence response of cells exposed to 80 μM of 2′(3′)-O-(4-benzoyl-benzoyl)adenosine 5′-triphosphate; Example 4A; read-out: IC50

IC50 [nM] | SMILES
< 2000 | CC(CN(C)C)NC(=O)c1cn2c(C(=O)NCC34CC5CC(CC(C5)C3)C4)cccc2n1 (stereo not drawn) [Compound 653, 5-N-(adamantan-1-ylmethyl)-2-N-[2-(dimethylamino)-l-methylethyl] imidazo[1,2-a]pyridine-2,5-dicarboxamide]
< 2000 | CC(Cc1cn2c(C(=O)NCC34CC5CC(CC(C5)C3)C4)cccc2n1)C(=O)O (stereo not shown) [Compound 693, 3-{5-[(adamantan-1-ylmethyl)carbamoyl]imidazo[1,2-a]pyridin-2-yl}-2-methylpropanoic acid]
< 2000 | CN1CCN(C)C(CN(C)C(=O)c2cn3c(C(=O)NCC45CC6CC(CC(C6)C4)C5)cccc3n2)C1 (stereo not shown) [Compound 706, 5-N-(adamantan-1-ylmethyl)-2-N-[(l,4-dimethylpiperazin-2-yl)methyl]-2-N-methylimidazo[1,2-a]pyridine-2,5-dicarboxamide]

same assay, conditions: 50% decrease in the fluorescence response of cells exposed to 80 μM of 2′(3′)-O-(4-benzoyl-benzoyl)adenosine 5′-triphosphate; determined as in Example 4A; read-out: IC50

IC50 [nM] | SMILES
< 2000 | CC(C)CC(CNC(=O)c1cccc2nc(C(=O)N3CCC[C@@H](N)C3)cn12)c1ccc(Cl)cc1 (stereo partly drawn) [Compound 832, 2-{[(3R)-3-aminopiperidin-1-yl]carbonyl}-N-[2-(4-chlorophenyl)-4-methylpentyl] imidazo[1,2-a] pyridine-5-carboxamide]
< 2000 | CC(C)CC(CNC(=O)c1cccc2nc(CN3CC[C@@H](O)C3)cn12)c1ccc(Cl)cc1 (stereo partly drawn) [Compound 942, N-[2-(4-chlorophenyl)-4-methylpentyl]-2-{[(3R)-3-hydroxypyrrolidin-1-yl]methyl} imidazo[1,2-a]pyridine-5-carboxamide]
< 2000 | O=C(NCC12CC3CC(CC(C3)C1)C2)c1cccc2nc(C3(C(=O)O)CCCC3)cn12 [Compound 850, 1-{5-[(adamantan-1-ylmethyl)carbamoyl]imidazo [1,2-a]pyridin-2-yl} cyclopentane-carboxylic acid]
< 2000 | O=C(NCC12CC3CC(CC(C3)C1)C2)c1cccc2nc(C(Cc3cccc(Cl)c3)C(=O)O)cn12 (stereo not shown) [Compound 848, 2-{5-[(adamantan-1-ylmethyl)carbamoyl]imidazo[1,2-a]pyridin-2-yl}-3-(3-chlorophenyl) propanoic acid]
< 2000 | Cc1ccc(C(CNC(=O)c2cccc3nc(Cn4nnc(CCO)n4)cn23)CC(C)C)cc1 (stereo not shown) [Compound 917, 2-{[5-(2-hydroxyethyl)-2H-tetrazol-2-yl]methyl}-N-[4-methyl-2-(4-methylphenyl)pentyl] imidazo [1,2-a]pyridine-5-carboxamide]
< 2000 | O=C(O)Cc1nnn(Cc2cn3c(C(=O)NCC45CC6CC(CC(C6)C4)C5)cccc3n2)n1 [Compound 903, [2-({5-[(adamantan-1-ylmethyl)carbamoyl]imidazo[1,2-a]pyridin-2-yl}methyl)-2H-tetrazol-5-yl]acetic acid]
< 2000 | O=C(Cc1cn2c(C(=O)NCC3(c4ccc(Cl)cc4)CCCCC3)cccc2n1)NC1CCCC1 [Compound 866, N-{[1-(4-chlorophenyl)cyclohexyl]methyl}-2-[2-(cyclopentylamino)-2-oxoethyl]imidazo [1,2-a]pyridine-5-carboxamide]
< 2000 | CCCCC(C(=O)O)c1cn2c(C(=O)NCC34CC5CC(CC(C5)C3)C4)cccc2n1 (stereo not shown) [Compound 908, 2-{5-[(adamantan-1-ylmethyl)carbamoyl]imidazo[1,2-a]pyridin-2-yl} hexanoic acid]
< 2000 | O=C(Cc1cn2c(C(=O)NCC3(c4ccc(C(F)(F)F)cc4)CCCCC3)cccc2n1)NC1CCCC1 [Compound 877, 2-[2-(cyclopentylamino)-2-oxoethyl]-N-({1-[4-(trifluoromethyl)phenyl]cyclohexyl}methyl) imidazo[1,2-a] pyridine-5-carboxamide]
< 2000 | CC(C)CC(CNC(=O)c1cccc2nc(Cn3ccc(N)n3)cn12)c1ccc(Cl)cc1 (stereo not shown) [Compound 834, 2-[(3-amino-1H-pyrazol-1-yl)methyl]-N-[2-(4-chlorophenyl)-4-methylpentyl] imidazo [1,2-a]pyridine-5-carboxamide]
< 2000 | CC(O)CNC(=O)Cc1cn2c(C(=O)NCC3(c4cccnc4)CCCCC3)cccc2n1 (stereo not shown) [Compound 857, 2-{2-[(2-hydroxypropyl)amino]-2-oxoethyl}-N-[(1-pyridin-3-ylcyclohexyl)methyl] imidazo[1,2-a] pyridine-5-carboxamide]

same assay, conditions: P2X7 calcium mobilization, Example 4A; 50% decrease in the fluorescence response of cells exposed to 80 μM of (2′(3′)-O-(4-benzoyl-benzoyl)adenosine 5′-triphosephate); read-out: IC50

IC50 [nM] | SMILES
< 2000 | CC(C)CC(CNC(=O)c1cccc2nc(C(F)(F)F)cn12)c1ccc(C(F)(F)F)cc1 (stereo not shown) [Compound 1025, N-{4-methyl-2-[4-(trifluoromethyl)phenyl]pentyl}-2-(trifluoromethyl) imidazo [1,2-a]pyridine-5-carboxamide]
< 2000 | O=C(NCC1(c2ccc(Cl)cc2)CCCCC1)c1cccc2nc(C(F)(F)F)cn12 [Compound 1020, N-{[1-(4-chlorophenyl)cyclohexyl]methyl}-2-(trifluoromethyl) imidazo [1,2-a]pyridine-5-carboxamide]

same assay, conditions: SH-SY5Y cells; 50% decrease in fluorescence response to 80 μM BzATP; read-out: IC50

IC50 [nM] | SMILES
< 2000 | CN(C(=O)c1cn2c(C(=O)NCC34CC5CC(CC(C5)C3)C4)cccc2n1)C1CCOC1 (stereo not shown) [Compound 90, 5-N-(adamantan-1-ylmethyl)--methyl-- (tetrahydrofuran-3-yl)imidazo[1,2-a]pyridine-2,5-dicarboxamide]
< 2000 | CC(C)NC(=O)Cc1cn2c(C(=O)NCC34CC5CC(CC(C5)C3)C4)cccc2n1 [Compound 150, N-(adamantan-1-ylmethyl)-2-[2-(isopropylamino)-2-oxoethyl]imidazo[1,2-a]pyridine-5-carboxamide]
< 2000 | CN(CCO)C(=O)c1cn2c(C(=O)NCC34CC5CC(CC(C5)C3)C4)cccc2n1 [Compound 9, 5-N-(adamantan-1-ylmethyl)--(2-hydroxyethyl)-- methylimidazo[1,2-a]pyridine-2,5-dicarboxamide]

same assay, conditions: fluorescence response of cells exposed to 80 μM 2′(3′)-O-(4-benzoyl-benzoyl)adenosine 5′-triphosphate; Example 4A; read-out: IC50

IC50 [nM] | SMILES
< 2000 | Cc1cc(-c2cn3c(C(=O)NCC45CC6CC(CC(C6)C4)C5)cccc3n2)n(CC(=O)O)n1 [Compound 347, (5-{5-[(adamantan-1-ylmethyl)carbamoyl]imidazo[1,2-a]pyridin-2-yl}-3-methyl-1H-pyrazol-1-yl)acetic acid]
< 2000 | COCCN(C)C(=O)c1cn2c(NC(=O)CC34CC5CC(CC(C5)C3)C4)cccc2n1 [Compound 366, 5-[(adamantan-1-ylacetyl)amino]-N-(2-methoxyethyl)-N-methylimidazo[1,2-a]pyridine-2-carboxamide]
< 2000 | CC1(C)[C@H]2CC[C@@H](CNC(=O)c3cccc4nc(C(=O)N5C6CCC5CC(N)C6)cn34)[C@@H]1C2 (stereo partly drawn) [Compound 335, 2-[(3-amino-8-azabicyclo[3.2.1]oct-8-yl)carbonyl]-N-{[(1S,2R,5S)-6,6-dimethylbicyclo[3.1.1]hept-2-yl]methyl}imidazo[1,2-a]pyridine-5-carboxamide]
< 2000 | O=C(CC12CC3CC(CC(C3)C1)C2)Nc1cccc2nc(C(=O)N3CCC(F)CC3)cn12 [Compound 387, 2-adamantan-1-yl-N-{2-[(4-fluoropiperidin-1-yl)carbonyl]imidazo[1,2-a]pyridin-5-yl}acetamide]
< 2000 | CCOC(=O)CN(C)Cc1cn2c(C(=O)NCC34CC5CC(CC(C5)C3)C4)cccc2n1 [Compound 341, ethyl N-({5-[(adamantan-1-ylmethyl)carbamoyl]imidazo[1,2-a]pyridin-2-yl}methyl)-N-methylglycinate]
